Each compound was assayed against T1, hT1R2/hT1R3 sweet receptor expressed in HEK293 cell line (Homo sapiens, UniProt Q7RTX0+Q8TE23) (assay: In vitro hT1R2/hT1R3-HEK293 taste receptor activation assay (FLIPR)). Conditions: Table A; read-out: SWEET EC50.
T1 construct: expressed in transfected cells; host or cells: HEK293 derivative stably expressing Gα15 and hT1R2/hT1R3, clone S-9
T1 sequence (Q8TE23 20-839): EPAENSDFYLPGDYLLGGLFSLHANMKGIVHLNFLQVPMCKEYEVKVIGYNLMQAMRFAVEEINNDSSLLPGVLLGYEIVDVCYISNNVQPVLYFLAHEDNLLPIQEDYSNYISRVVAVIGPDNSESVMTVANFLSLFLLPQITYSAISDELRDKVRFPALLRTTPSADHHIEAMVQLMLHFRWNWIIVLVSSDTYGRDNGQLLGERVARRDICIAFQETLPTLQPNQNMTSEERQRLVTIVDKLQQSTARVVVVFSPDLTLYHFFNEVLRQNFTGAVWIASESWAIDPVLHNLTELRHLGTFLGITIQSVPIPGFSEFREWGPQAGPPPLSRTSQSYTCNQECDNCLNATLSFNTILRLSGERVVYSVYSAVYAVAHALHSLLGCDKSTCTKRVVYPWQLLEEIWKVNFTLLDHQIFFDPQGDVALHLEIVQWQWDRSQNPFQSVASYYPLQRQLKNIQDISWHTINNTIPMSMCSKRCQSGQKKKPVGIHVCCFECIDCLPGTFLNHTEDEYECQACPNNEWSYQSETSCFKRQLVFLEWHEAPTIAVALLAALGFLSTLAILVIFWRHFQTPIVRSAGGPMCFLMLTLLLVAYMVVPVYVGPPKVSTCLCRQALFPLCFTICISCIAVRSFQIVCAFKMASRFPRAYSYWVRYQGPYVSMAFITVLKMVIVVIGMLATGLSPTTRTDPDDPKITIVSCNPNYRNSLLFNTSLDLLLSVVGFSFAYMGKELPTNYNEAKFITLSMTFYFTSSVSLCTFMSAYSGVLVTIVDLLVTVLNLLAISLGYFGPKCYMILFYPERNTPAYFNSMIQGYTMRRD
T1 sequence (Q7RTX0 21-852): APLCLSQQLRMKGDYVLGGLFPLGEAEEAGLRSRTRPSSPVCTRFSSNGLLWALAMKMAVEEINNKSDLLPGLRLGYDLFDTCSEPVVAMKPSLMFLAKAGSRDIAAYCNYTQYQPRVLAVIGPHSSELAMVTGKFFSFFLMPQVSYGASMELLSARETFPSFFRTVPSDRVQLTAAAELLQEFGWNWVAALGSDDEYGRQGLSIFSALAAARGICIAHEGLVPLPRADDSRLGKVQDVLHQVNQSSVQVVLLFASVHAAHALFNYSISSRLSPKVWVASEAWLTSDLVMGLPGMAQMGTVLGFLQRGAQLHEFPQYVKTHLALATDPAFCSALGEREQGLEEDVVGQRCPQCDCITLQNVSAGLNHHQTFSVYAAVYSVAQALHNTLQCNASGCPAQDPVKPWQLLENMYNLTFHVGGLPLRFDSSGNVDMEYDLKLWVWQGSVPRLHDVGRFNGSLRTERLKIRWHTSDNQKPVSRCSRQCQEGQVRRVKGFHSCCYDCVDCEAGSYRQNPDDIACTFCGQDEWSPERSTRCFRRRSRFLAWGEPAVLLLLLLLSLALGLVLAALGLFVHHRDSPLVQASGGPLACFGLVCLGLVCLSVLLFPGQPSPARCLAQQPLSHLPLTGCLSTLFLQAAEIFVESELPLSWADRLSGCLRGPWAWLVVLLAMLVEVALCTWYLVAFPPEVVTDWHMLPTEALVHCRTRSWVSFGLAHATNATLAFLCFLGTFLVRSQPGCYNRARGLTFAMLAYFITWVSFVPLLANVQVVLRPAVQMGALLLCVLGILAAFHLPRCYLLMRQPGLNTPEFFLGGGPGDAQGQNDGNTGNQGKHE
Assay type: cell-based
Experimental: An HEK293 cell line derivative (Chandrashekar et al., Cell (2000) 100:703-711) that stably expresses Gα15 and hT1R2/hT1R3 (Li et al., Proc Natl Acad Sci USA (2002) 99:4692-4696), see also PCT Publication No. WO 03/001876 A2) was used to identify compounds with sweet taste enhancing properties.
Compounds covered in this document were initially selected based on their activity on the hT1R2/hT1R3-HEK293-Gα15 cell line (Li et al. vide supra). Activity was determined using an automated fluorometric imaging assay on a FLIPR instrument ([…], Molecular Devices, Sunnyvale, Calif.) (designated FLIPR assay). Cells from one clone (designated S-9 cells) were seeded into 384-well plates (at approximately 50,000 cells per well) in a medium containing DMEM Low Glucose (Invitrogen, Carlsbad, Calif.), 10% dialyzed fetal bovine serum (Invitrogen, Carlsbad, Calif.), 100 Units/ml Penicillin G, and 100 μg/ml Streptomycin (Invitrogen, Carlsbad, Calif.) (Li et al. vide supra) see also PCT Publication No. WO 03/001876 A2). S-9 cells were grown for 24 hours at 37° C. S-9 cells were then loaded with the calcium dye Fluo-3AM (Molecular Probes, Eugene, Oreg.), 4 μM in a phosphate buffered saline (D-PBS) (Invitrogen, Carlsbad, Calif.), for 1 hour at room temperature. After replacement with 25 μl D-PBS, stimulation was performed in the FLIPR instrument and at room temperature by the addition of 25 μl D-PBS supplemented with different stimuli at concentrations corresponding to twice the desired final level. Receptor activity was quantified by determining the maximal fluorescence increases (using a 480 nm excitation and 535 nm emission) after normalization to basal fluorescence intensity measured before stimulation.
For dose-responses analysis, stimuli were presented in duplicates at 10 different concentrations ranging from 60 nM to 30 μM. Activities were normalized to the response obtained with 400 mM D-fructose, a concentration that elicits maximum receptor response. EC50s were determined using a non-linear regression algorithm (using a Senomyx, Inc. software), where the Hill slope, bottom asymptotes and top asymptotes were allow to vary. Identical results were obtained when analyzing the dose-response data using commercially available software for non-linear regression analysis such as GraphPad PRISM (San Diego, Calif.).

| SMILES | EC50 |
| --- | --- |
| CC(C)CNC(=O)C(C)(C)c1ccc(-c2ccncn2)cc1 [Compound A33] | 5400 nM |
| CC(C)CNC(=O)C(C)(C)c1ccc(-n2ccnc2)cc1 [Compound A34] | 10100 nM |
| CC(C)CNC(=O)C(C)(C)c1ccc(-c2cnco2)cc1 [Compound A35] | 11500 nM |
| CC(C)CNC(=O)C(C)(C)c1ccc(-c2ccccc2)cc1 [Compound A36] | 1280 nM |
| CC(C)CNC(=O)C(C)(C)c1ccc(-c2cccc(C=O)c2)cc1 [Compound A37] | 760 nM |
| CC(C)CNC(=O)C(C)(C)c1ccc(-c2cccc(S(C)(=O)=O)c2)cc1 [Compound A38] | 1490 nM |
| CC(C)CNC(=O)Cc1ccc(-c2ccccc2)cc1 [Compound A39] | 1540 nM |
| CCC(CC)NC(=O)C(C)(C)c1ccc(-c2cncc(C#N)n2)cc1 [Compound A40] | 30 nM |
| CCC(C)CNC(=O)C(C)(C)c1ccc(-c2cncc(C#N)n2)cc1 (centres unmarked) [Compound A41] | 50 nM |
| CC(NC(=O)C(C)(C)c1ccc(-c2cncc(C#N)n2)cc1)c1ccco1 (centres unmarked) [Compound A42] | 100 nM |
| CC(C)(C(=O)NC1CCCC1)c1ccc(-c2cncc(C#N)n2)cc1 [Compound A43] | 130 nM |
| CC(C)[C@@H](C)NC(=O)C(C)(C)c1ccc(-c2cncc(C#N)n2)cc1 [Compound A44] | 210 nM |
| CC(C)(C(=O)NCC1CC1)c1ccc(-c2cncc(C#N)n2)cc1 [Compound A45] | 270 nM |
| CC(C)[C@H](C)NC(=O)C(C)(C)c1ccc(-c2cncc(C#N)n2)cc1 [Compound A46] | 310 nM |
| CC(C)(C(=O)NC1CC1)c1ccc(-c2cncc(C#N)n2)cc1 [Compound A47] | 320 nM |
| CC(C)CNC(=O)C(C)(C)c1ccc(-c2cocc2C#N)cc1 [Compound A48] | 320 nM |
| CC(C)(C(=O)NC1CCC1)c1ccc(-c2cncc(C#N)n2)cc1 [Compound A49] | 370 nM |
| CC[C@@H](C)NC(=O)C(C)(C)c1ccc(-c2cncc(C#N)n2)cc1 [Compound A50] | 370 nM |
| CC(C)(C(=O)NC1CCC1)c1ccc(-c2cncc(C#N)c2)cc1 [Compound A51] | 410 nM |
| CCCNC(=O)C(C)(C)c1ccc(-c2cncc(C#N)n2)cc1 [Compound A52] | 470 nM |
| CC[C@@H](C)NC(=O)C(C)(C)c1ccc(-c2cccc(COC)c2)cc1 [Compound A53] | 550 nM |
| CC(C)(C(=O)NCc1ccoc1)c1ccc(-c2cncc(C#N)n2)cc1 [Compound A54] | 590 nM |
| CC(C)NC(=O)C(C)(C)c1ccc(-c2cncc(C#N)n2)cc1 [Compound A55] | 650 nM |
| CC(C)CNC(=O)C(C)(C)c1ccc(-c2cccnc2)cc1 [Compound A56] | 770 nM |
| COCc1cccc(-c2ccc(C(C)(C)C(=O)NC(C)C)cc2)c1 [Compound A57] | 920 nM |
| CC[C@@H](C)NC(=O)C(C)(C)c1ccc(-c2cncc(COC)c2)cc1 [Compound A58] | 1050 nM |
| Cc1cscc1-c1ccc(C(C)(C)C(=O)NCC(C)C)cn1 [Compound A59] | 1050 nM |

| SMILES | EC50 |
| --- | --- |
| CC[C@H](CO)NC(=O)C(C)(C)c1ccc(-c2ccccc2)cc1 [Compound A60] | 1100 nM |
| CC(C)(C(=O)NCC(O)c1ccccc1)c1ccc(-c2cncc(C#N)c2)cc1 (centres unmarked) [Compound A61] | 1170 nM |
| CCC(COC)NC(=O)C(C)(C)c1ccc(-c2cncc(C#N)c2)cc1 (centres unmarked) [Compound A62] | 1220 nM |
| CC(C)CNC(=O)C(C)(C)c1ccc(-c2ccc(C#N)o2)cc1 [Compound A63] | 1290 nM |
| CC[C@H](C)NC(=O)C(C)(C)c1ccc(-c2cncc(COC)c2)cc1 [Compound A64] | 1290 nM |
| CC(C)(C(=O)NCC(O)c1ccco1)c1ccc(-c2cncc(C#N)n2)cc1 (centres unmarked) [Compound A65] | 1310 nM |
| CC(C)CNC(=O)C(C)(C)c1ccc(-c2coc(C(=O)O)c2)cc1 [Compound A66] | 1370 nM |
| CC(C)CNC(=O)C(C)(C)c1ccc(-c2ccccc2)c(O)c1 [Compound A67] | 1420 nM |
| CCOc1cncc(-c2ccc(C(C)(C)C(=O)NCC(C)C)cc2)c1 [Compound A68] | 1590 nM |
| CCC[C@@H](CO)NC(=O)C(C)(C)c1ccc(-c2cncc(C#N)c2)cc1 [Compound A69] | 1660 nM |
| CCC(C)CNC(=O)C(C)(C)c1ccc(-c2cncc(COC)c2)cc1 (centres unmarked) [Compound A70] | 510 nM |
| CC(C)CNC(=O)C(C)(C)c1ccc(-c2cocc2/C=N/O)cc1 [Compound A71] | 750 nM |
| CC(C)(C(=O)CCc1ccco1)c1ccc(-c2cncc(C#N)c2)cc1 [Compound A72] | 180 nM |
| COC(=O)c1cncc(-c2ccc(C(C)(C)C(=O)NCC(C)C)cc2)c1 [Compound A73] | 540 nM |
| CC[C@@H](CO)NC(=O)C(C)(C)c1ccc(-c2cncc(C#N)c2)cc1 [Compound A75] | 680 nM |
| COc1cc(C(C)(C)C(=O)NCC(C)C)ccc1-c1ccccc1 [Compound A76] | 960 nM |
| CCC(CO)NC(=O)C(C)(C)c1ccc(-c2ccoc2)cc1 (centres unmarked) [Compound A77] | 1250 nM |
| CCCNC(=O)C(C)(C)c1ccc(-c2cccc(COC)c2)cc1 [Compound A78] | 670 nM |
| CC(C)CNC(=O)C(C)(C)c1ccc(-c2cccc3c2COCOC3)cc1 [Compound A79] | 670 nM |
| CC(C)CNC(=O)C(C)(C)c1ccc(-c2cccc(C#N)c2CO)cc1 [Compound A80] | 670 nM |
| CC(C)CNC(=O)C(C)(C)c1ccc(-c2cccc(C#N)n2)cc1 [Compound A81] | 670 nM |
| CC[C@H](C)CNC(=O)C(C)(C)c1ccc(-c2cncc(C#N)n2)cc1 [Compound A82] | 30 nM |
| CCC(C)CNC(=O)C(C)(C)c1ccc(-c2cncc(C#N)c2)cc1 (centres unmarked) [Compound A83] | 110 nM |
| CC(C)(C(=O)NCC1CC1)c1ccc(-c2cncc(C#N)c2)cc1 [Compound A84] | 110 nM |
| CC[C@@H](C)NC(=O)C(C)(C)c1ccc(-c2cncc(C#N)c2)cc1 [Compound A85] | 150 nM |
| CC(C)(C(=O)NC1CCCCC1)c1ccc(-c2cncc(C#N)c2)cc1 [Compound A86] | 180 nM |
